Assay results reported in EP0386044B1, “HYPOGLYCAEMIC PEPTIDES” (MONASH UNIVERSITY, priority 1987, dated 1997).
Where no end group is shown, it is not given here. [ ]: non-standard residue; d: D form.

Key:
[1] = test system: cultured muscle cells (L6 rat skeletal muscle cell line); experiment: Cultured cell assay for stimulation of glucose uptake; assay type: cell-based; conditions: peptide 10µg/ml
Description: In these assays collagenase-dispersed rat adipocytes, cultured muscle cells (L6 rat skeletal muscle cell line) and hemidiaphragm preparations were employed.
The effect of the β imide form peptides on glucose metabolism is further shown by their ability to stimulate glucose uptake and glycogen synthesis by cultured muscle cells and isolated rat hemidiaphragms.

[2] = test system: rats; experiment: Decrease in blood glucose level in rats following intravenous injection of peptides; assay type: in vivo; conditions: for hypoglycaemic effect (change in blood glucose level), in words: injection of peptide, Table 2 and Figure 9; for Decrease in blood from basal / Difference from control mean: intravenous injection, peptide 0.5 µmol/100g; for Decrease in blood from basal: change of blood glucose from basal level (4.0 - 4.4 mmol glucose/l) at time 0, control 1.05; for Difference from control mean: difference of blood glucose decrease from control mean (1.05)
Description: Values are changes (means ± SEM) of blood glucose from the basal level (4.0 - 4.4 mmol glucose/l) at time 0. Differences between the control and test groups were statistically evaluated according to Student's t-test. N.S. indicates 2P > 0.05.
Similar results are illustrated graphically in Figure 9.

[3] = test system: mice; experiment: In vivo testing for insulin-potentiating activity on untrained and trained mice; conditions: untrained female mice and untrained or trained male mice, 2.3 or 2.4 mg/kg peptide in 0.2 ml saline, insulin injected at t0; Figures 12 and 13
Experimental: The dotted lines represent control animals (injected with 0.2 ml of saline) in each case. The unbroken lines represent test animals (injected with 2.4 mg/Kg of peptide in 0.2 ml of saline). Insulin was injected at to. • Figure 13 represents in vivo testing of peptides for insulin-potentiating activity on "untrained" and "trained" male mice. The dotted line represents the mean fall in blood glucose for control animals (injected with 0.2 ml of saline). The unbroken line represents the mean fall in blood glucose for test animals, injected with 2.3 mg/kg of peptide in 0.2 ml of saline, except for (a), in which the dose was 2.4 mg/kg. • (a) Pep 6-13 (Gln^11Asp^12), "untrained" • (b) Pep 6-13 (Gln^11Asp^12), "trained" • (c) Pep 6-13 (Asn^11Asp^12), "trained" • (d) Pep 6-13 (Asp^12), "trained" Insulin was injected at to.
The dose of Pep (6-13) was 200 µg/Kg body weight. Similarly, various forms of the peptide according to the invention in its β imide form potentiate the hypoglycaemic effect of insulin on "untrained" male and female mice. The effect on trained male mice trained to feed on schedule as described above was less striking, but still significant in some cases.

Substance	hypoglycaemic effect (change in blood glucose level), in words [2]	Decrease in blood from basal [2]	Difference from control mean [2]	further results
LSRL[dF]DNA [Pep P057]				Rate of Increase from Basal [1]: 2.0 µmol glucose/hour
Pep (6-13) Gly^10Pro^11 α form: variant Gly^10Pro^11 of Pep (6-13), α form (LSRLGPNA; UniProt P01241 32-39, looked up, variant F10G D11P)	inactive			
L-α-Asp at position 11 in hGH[6-13]: inactive control peptide, hGH[6-13] with L-α-Asp at position 11 and Asp at 12 (LSRLFDDA; UniProt P01241 32-39, looked up, variant N12D)				insulin-potentiating activity [3]: inactive
Pep (6-13) Tyr^10 α form: variant Tyr^10 of Pep (6-13), α form (LSRLYDNA; UniProt P01241 32-39, looked up, variant F10Y)	inactive			
Pep (6-13) Gly^10 α form: variant Gly^10 of Pep (6-13), α form (LSRLGDNA; UniProt P01241 32-39, looked up, variant F10G)	inactive			
Pep (6-13) Pro^11 α form: variant Pro^11 of Pep (6-13), α form (LSRLFPNA; UniProt P01241 32-39, looked up, variant D11P)	inactive			
Pep (6-13) Ala^11 α form: variant Ala^11 of Pep (6-13), α form (LSRLFANA; UniProt P01241 32-39, looked up, variant D11A)	inactive			
Pep (6-12): synthetic peptide corresponding to residues 6-12 of human growth hormone, α form (LSRLFDN; UniProt P01241 32-38, looked up, fragment)	active only in the β imide form	1.00	-0.05	
Pep (9-13): synthetic peptide corresponding to residues 9-13 of human growth hormone, α form (LFDNA; UniProt P01241 35-39, looked up, fragment)	neither the α form nor the β imide form was active	1.12	0.07	
Pep (6-15): synthetic peptide corresponding to residues 6-15 of human growth hormone, α form (LSRLFDNAML; UniProt P01241 32-41, looked up, fragment)	active only in the β imide form	1.26	0.21	
